Source: the supplement of paper PMC10883282
Where a name gives a salt, the structure may show the parent alone. ± gives the standard deviation of the averaged measurements.

Test system: SK-LMS-1
Test: relative viability vs DMSO control (72 h) (fraction); higher = more viable cells
Method in brief: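 Serially diluted compound, 2.5 µl from source plates spanning 10 mM to 0.0002 mM, was added 24 h after sarcoma cell lines were seeded in 384-well plates at densities targeting 80–90% confluence. Plates then sat 72 h at 37 °C, 5% CO2, with 0.1% DMSO vehicle and a 5 µM positive control. Relative viability came from ATPLite as percent growth, averaged over up to triplicate wells, and was rescaled with 1 as full and 0 as none.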

Structure (SMILES) | relative viability (0.00017 µM) | relative viability (0.00051 µM) | relative viability (0.00152 µM) | relative viability (0.00457 µM) | relative viability (0.01372 µM) | relative viability (0.04115 µM) | relative viability (0.1235 µM) | relative viability (0.3704 µM) | relative viability (1.111 µM) | relative viability (3.333 µM) | relative viability (10 µM)
O=C(Nc1cnn2ccc(N3CCC[C@@H]3c3cc(F)ccc3F)nc12)N1CC[C@H](O)C1 [Larotrectinib] | 1.12 ± 0.03 | 1.16 ± 0.051 | 1.13 ± 0.057 | 1.08 ± 0.015 | 1.07 ± 0.047 | 1.11 ± 0.025 | 1.11 ± 0.028 | 1.06 ± 0.026 | 1.08 ± 0.03 | 1.08 ± 0.032 | 1.071 ± 0.0057
C[C@@H]1COCCN1c1cc(-c2ccnn2C)c2ccnc(-c3ccn[nH]3)c2n1 | 0.9973 ± 0.0066 | 0.992 ± 0.064 | 0.989 ± 0.033 | 1 ± 0.051 | 1 ± 0.024 | 0.928 ± 0.056 | 0.785 ± 0.035 | 0.571 ± 0.016 | 0.371 ± 0.025 | 0.271 ± 0.0038 | 0.234 ± 0.0024
CC(C)N1CCN(Cc2cnc(-c3cc(-c4cccc5[nH]ccc45)cc4[nH]ncc34)o2)CC1 [Nemiralisib] | 1.05 ± 0.047 | 1.02 ± 0.033 | 1.06 ± 0.038 | 1.04 ± 0.011 | 1.04 ± 0.047 | 1.05 ± 0.04 | 1.042 ± 0.0068 | 0.994 ± 0.033 | 0.928 ± 0.012 | 0.821 ± 0.029 | 0.658 ± 0.041
COc1cccc2c1C(=O)c1c(O)c3c(c(O)c1C2=O)C[C@@](O)(C(=O)CO)C[C@@H]3O[C@H]1C[C@H](N)[C@H](O)[C@H](C)O1 [Doxorubicin Hydrochloride] | 0.998 ± 0.032 | 1.02 ± 0.038 | 1.02 ± 0.044 | 1.03 ± 0.024 | 0.967 ± 0.047 | 0.781 ± 0.011 | 0.649 ± 0.046 | 0.313 ± 0.025 | 0.209 ± 0.069 | 0.296 ± 0.0043 | 0.293 ± 0.0053
Nc1cc(C(F)(F)F)c(-c2cc(N3CCOCC3)nc(N3CCOCC3)n2)cn1 [Buparlisib] | 1.02 ± 0.031 | 0.9986 ± 0.0078 | 1.01 ± 0.035 | 1.02 ± 0.013 | 1.01 ± 0.038 | 0.9304 ± 0.0067 | 0.825 ± 0.018 | 0.686 ± 0.015 | 0.3771 ± 0.0013 | 0.148 ± 0.0057 | 0.102 ± 0.0085
Cc1cc(Nc2ncnc3ccc(NC4=NC(C)(C)CO4)cc23)ccc1Oc1ccn2ncnc2c1 [Tucatinib] | 1.1 ± 0.022 | 1.09 ± 0.06 | 1.08 ± 0.041 | 1.09 ± 0.058 | 1.08 ± 0.047 | 1.08 ± 0.034 | 1.08 ± 0.033 | 1.09 ± 0.055 | 1.09 ± 0.045 | 1.05 ± 0.025 | 0.7801 ± 0.0053
Cc1nc(-c2cn3c(n2)-c2ccc(-c4cnn(C(C)(C)C(N)=O)c4)cc2OCC3)n(C(C)C)n1 [Taselisib] | 0.978 ± 0.027 | 1.035 ± 0.0056 | 0.993 ± 0.043 | 0.9916 ± 0.0093 | 0.949 ± 0.021 | 0.833 ± 0.017 | 0.739 ± 0.018 | 0.676 ± 0.011 | 0.6 ± 0.023 | 0.454 ± 0.012 | 0.315 ± 0.016
CN1CCC(COc2cnc(-c3cccc(Cn4nc(-c5cccc(C#N)c5)ccc4=O)c3)nc2)CC1 [Tepotinib] | 1.06 ± 0.027 | 1.05 ± 0.022 | 1.01 ± 0.037 | 1.05 ± 0.039 | 1 ± 0.047 | 0.833 ± 0.017 | 0.597 ± 0.019 | 0.526 ± 0.0067 | 0.489 ± 0.0072 | 0.461 ± 0.02 | 0.361 ± 0.028
CNC(=O)c1cc(Oc2ccc(NC(=O)Nc3ccc(Cl)c(C(F)(F)F)c3)c(F)c2)ccn1 [Regorafenib] | 1.12 ± 0.046 | 1.11 ± 0.018 | 1.12 ± 0.082 | 1.11 ± 0.03 | 1.17 ± 0.053 | 1.08 ± 0.073 | 1.11 ± 0.079 | 1.05 ± 0.036 | 0.938 ± 0.066 | 0.719 ± 0.035 | 0.0852 ± 0.017
CCCS(=O)(=O)Nc1ccc(F)c(C(=O)c2c[nH]c3ncc(-c4ccc(Cl)cc4)cc23)c1F [Vemurafenib] | 0.994 ± 0.053 | 0.988 ± 0.079 | 1.01 ± 0.081 | 1.06 ± 0.053 | 1.03 ± 0.028 | 0.979 ± 0.06 | 1.02 ± 0.013 | 0.959 ± 0.01 | 0.855 ± 0.033 | 0.667 ± 0.018 | 0.697 ± 0.1
COc1c(OCCCN2CCOCC2)ccc2c1N=C(NC(=O)c1cnc(N)nc1)N1CCN=C21 [Copanlisib] | 1.05 ± 0.059 | 0.995 ± 0.035 | 0.964 ± 0.032 | 0.814 ± 0.035 | 0.744 ± 0.042 | 0.629 ± 0.014 | 0.539 ± 0.018 | 0.454 ± 0.017 | 0.365 ± 0.02 | 0.296 ± 0.014 | 0.302 ± 0.011
CC(=O)Nc1cccc(-n2c(=O)n(C3CC3)c(=O)c3c(Nc4ccc(I)cc4F)n(C)c(=O)c(C)c32)c1 [Trametinib] | 1.01 ± 0.027 | 1.02 ± 0.06 | 1.06 ± 0.03 | 0.905 ± 0.034 | 0.575 ± 0.025 | 0.399 ± 0.01 | 0.327 ± 0.0053 | 0.27 ± 0.0086 | 0.25 ± 0.0039 | 0.225 ± 0.0081 | 0.193 ± 0.0022
COCc1c(-c2cc3cc(C)cc(OC)c3s2)c2c(N)ncnn2c1CN1CCNC(=O)C1 [Rogaratinib] | 1.01 ± 0.034 | 0.992 ± 0.026 | 1.02 ± 0.022 | 1.01 ± 0.044 | 0.995 ± 0.022 | 0.992 ± 0.035 | 1 ± 0.01 | 0.975 ± 0.017 | 0.96 ± 0.036 | 0.76 ± 0.019 | 0.589 ± 0.017
COc1cc2/c(=N/c3ccc(Br)cc3F)nc[nH]c2cc1OCC1CCN(C)CC1 [Vandetanib] | 0.994 ± 0.015 | 1.01 ± 0.029 | 1.02 ± 0.049 | 1.08 ± 0.015 | 1.02 ± 0.09 | 1.05 ± 0.039 | 1.01 ± 0.015 | 1.03 ± 0.074 | 0.939 ± 0.011 | 0.484 ± 0.0052 | 0.103 ± 0.014
CNC(=O)c1ccc(-c2cnc3ncc(Cc4ccc5ncccc5c4)n3n2)cc1F [Capmatinib] | 1.02 ± 0.019 | 1 ± 0.07 | 0.987 ± 0.015 | 0.882 ± 0.031 | 0.617 ± 0.047 | 0.536 ± 0.0061 | 0.532 ± 0.0098 | 0.53 ± 0.013 | 0.512 ± 0.012 | 0.496 ± 0.017 | 0.5154 ± 0.005
CCN1CCN(Cc2ccc(Nc3ncc(F)c(-c4cc(F)c5nc(C)n(C(C)C)c5c4)n3)nc2)CC1 [Abemaciclib] | 1.03 ± 0.012 | 1.05 ± 0.019 | 1.05 ± 0.057 | 1.02 ± 0.033 | 1.04 ± 0.024 | 1.01 ± 0.021 | 0.945 ± 0.037 | 0.9498 ± 0.0093 | 0.926 ± 0.043 | 0.88 ± 0.042 | 0.873 ± 0.02
C=CC(=O)N1CCC[C@@H](n2nc(-c3ccc(Oc4ccccc4)cc3)c3c(N)ncnc32)C1 [Ibrutinib] | 1.04 ± 0.048 | 1.01 ± 0.058 | 1.02 ± 0.045 | 1.03 ± 0.04 | 1.04 ± 0.015 | 1.03 ± 0.016 | 1.05 ± 0.055 | 1.05 ± 0.028 | 1.05 ± 0.012 | 0.9551 ± 0.0066 | 0.693 ± 0.032
Cn1cnc2c(F)c(Nc3ccc(Br)cc3F)c(C(=O)NOCCO)cc21 [Binimetinib] | 1.11 ± 0.03 | 1.16 ± 0.045 | 1.13 ± 0.034 | 1.07 ± 0.073 | 1 ± 0.011 | 0.879 ± 0.01 | 0.725 ± 0.039 | 0.646 ± 0.038 | 0.61 ± 0.016 | 0.484 ± 0.011 | 0.375 ± 0.028
